The results in this text go back to patent US9988430B2, “Stable GLP-1 based GLP-1/glucagon receptor co-agonists” (Novo Nordisk A/S, priority 2014, dated 2018).

*1 amine or outer side, *2 acyl side, *3 side chain or, on linkers, in order; H or OH if unused. Where a SMILES comes first, the peptide text is derived from it. Bridges are numbered along the chain shown (N, C = ends). Roman numbers before positions name the chains, in order. Side-chain parts run from the residue outwards. [ ]: non-standard residue; d: D form. The star is where a group is joined. C18 diacid = O=C(O)CCCCCCCCCCCCCCCCC(=O)*; γGlu = O=C(O)[C@H](CCC(=O)[*:2])N[*:1]; Desaminohistidyl = O=C(CCc1c[nH]cn1)*; Aib = CC(C)(N)C(=O)O

For orientation: EC50 means the midpoint of the concentration-response curve.

The target of one series is T1, human GLP-1 receptor (Homo sapiens, UniProt P43220).
T1 construct: expressed in transfected cells; host or cells: membranes of BHK cells, parent line BHKTS13, clone FCW467-12A
T1 sequence (P43220 24-463): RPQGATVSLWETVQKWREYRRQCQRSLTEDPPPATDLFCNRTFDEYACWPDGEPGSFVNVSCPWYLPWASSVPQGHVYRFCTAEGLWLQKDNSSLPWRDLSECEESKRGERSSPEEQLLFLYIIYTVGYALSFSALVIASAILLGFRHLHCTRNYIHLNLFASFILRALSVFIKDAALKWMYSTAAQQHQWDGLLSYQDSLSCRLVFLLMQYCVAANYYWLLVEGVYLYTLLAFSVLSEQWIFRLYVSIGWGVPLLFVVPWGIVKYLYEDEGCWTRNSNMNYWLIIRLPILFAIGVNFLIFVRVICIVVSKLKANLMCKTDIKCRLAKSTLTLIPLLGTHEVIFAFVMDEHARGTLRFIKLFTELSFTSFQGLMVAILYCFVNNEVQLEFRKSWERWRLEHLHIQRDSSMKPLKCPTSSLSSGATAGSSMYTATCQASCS
The series can be described thus: Assay (I)(a): GLP-1 receptor potency, CRE luciferase reporter gene assay in BHK cells. Type of series: cell-based. Conditions: BHK cells expressing human GLP-1 receptor, read-out: EC50 GLP-1R. The essentials: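 BHK cells (clone FCW467-12A/KZ10-1), 5×10EE3/well, exposed 3 h at 37° C to compound at 1×10EE-13 to 1×10EE-6 M final in medium with 2% ovalbumin and 0.2% Pluronic F-68. Luciferase luminescence read; EC50 (pM) from four-parameter fit.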

The nature of series [1]: Assay (V): chemical stability assessment by RP-UPLC. Type of series: physicochemical. The note with it: 14 days at 37° C. in phosphate buffer (pH 7.3). The essentials:
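Lyophilized peptide dissolved in 8 mM phosphate pH 8.6, adjusted to pH 7.3, final 333 μM, held 14 days at 5° C and 37° C. Purity is main-peak area % by RP-UPLC with UV detection at 215 nm. Degradation is the 5° C minus 37° C purity difference divided by the 5° C purity.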

Turning to `CC[C@H](C)[C@H](NC(=O)[C@H](Cc1ccccc1)NC(=O)[C@H](CCC(=O)O)NC(=O)[C@H](CCCNC(=N)N)NC(=O)[C@H](C)NC(=O)[C@H](C)NC(=O)[C@H](CCC(N)=O)NC(=O)[C@H](CCC(=O)O)NC(=O)[C@H](CCC(=O)O)NC(=O)[C@H](CC(C)C)NC(=O)[C@H](Cc1ccc(O)cc1)NC(=O)[C@H](CCCCN)NC(=O)[C@H](CO)NC(=O)[C@@H](NC(=O)[C@H](CC(=O)O)NC(=O)[C@H](CO)NC(=O)[C@@H](NC(=O)[C@H](Cc1ccccc1)NC(=O)[C@@H](NC(=O)CNC(=O)[C@H](Cc1c[nH]cn1)NC(=O)C(C)(C)NC(=O)CCc1c[nH]cn1)[C@@H](C)O)[C@@H](C)O)C(C)C)C(=O)N[C@@H](C)C(=O)N[C@@H](Cc1c[nH]c2ccccc12)C(=O)N[C@@H](CC(C)C)C(=O)N[C@@H](CC(C)C)C(=O)N[C@@H](CCCCNC(=O)CNC(=O)[C@H](CO)NC(=O)CC[C@H](NC(=O)CC[C@H](NC(=O)CCCCCCCCCCCCCCCCC(=O)O)C(=O)O)C(=O)O)C(=O)N[C@H](C(N)=O)[C@@H](C)O` [Example 4, N^ε34-[2-[[(2S)-2-[[(4S)-4-carboxy-4-[[(4S)-4-carboxy-4-(17-carboxyheptadecanoylamino)butanoyl]amino]butanoyl]amino]-3-hydroxypropanoyl]amino]acetyl]-[Imp7,Aib8,His9,Lys18,Glu22,Arg26,Leu33,Thr35]-GLP-1-(7-35)-peptide amide] (Desaminohistidyl-[Aib]HGTFTSDVSKYLEEQAAREFIAWLLK([Gly-Ser-γGlu-γGlu-C18 diacid])T-NH2), at human GLP-1 receptor, the EC50 came to 7 pM. Further, in series [1], the “Chemical stability: Chemical degradation over 14 days at 37° C.” value is 0.2%.

As to `CC[C@H](C)[C@H](NC(=O)[C@H](Cc1ccccc1)NC(=O)[C@H](CCC(=O)O)NC(=O)[C@H](CCCNC(=N)N)NC(=O)[C@H](C)NC(=O)[C@H](C)NC(=O)[C@H](CCC(N)=O)NC(=O)[C@H](CCC(=O)O)NC(=O)[C@H](CCC(=O)O)NC(=O)[C@H](CC(C)C)NC(=O)[C@H](Cc1ccc(O)cc1)NC(=O)[C@H](CCCCN)NC(=O)[C@H](CO)NC(=O)[C@@H](NC(=O)[C@H](CC(=O)O)NC(=O)[C@H](CO)NC(=O)[C@@H](NC(=O)[C@H](Cc1ccccc1)NC(=O)[C@@H](NC(=O)CNC(=O)[C@H](Cc1c[nH]cn1)NC(=O)C(C)(C)NC(=O)CCc1c[nH]cn1)[C@@H](C)O)[C@@H](C)O)C(C)C)C(=O)N[C@@H](C)C(=O)N[C@@H](Cc1c[nH]c2ccccc12)C(=O)N[C@@H](CC(C)C)C(=O)N[C@@H](CC(C)C)C(=O)N[C@@H](CCCCNC(=O)CNC(=O)[C@H](CO)NC(=O)[C@H](CCC(=O)O)NC(=O)CNC(=O)[C@H](CO)NC(=O)CC[C@H](NC(=O)CC[C@H](NC(=O)CCCCCCCCCCCCCCCCC(=O)O)C(=O)O)C(=O)O)C(=O)N[C@H](C(N)=O)[C@@H](C)O` [Example 3, N^ε34-[2-[[(2S)-2-[[(2S)-4-carboxy-2-[[2-[[(2S)-2-[[(4S)-4-carboxy-4-[[(4S)-4-carboxy-4-(17-carboxyheptadecanoylamino)butanoyl]amino]butanoyl]amino]-3-hydroxypropanoyl]amino]acetyl]amino]butanoyl]amino]-3-hydroxypropanoyl]amino]acetyl]-[Imp7,Aib8,His9,Lys18,Glu22,Arg26,Leu33,Thr35]-GLP-1-(7-35)-peptide amide] (I: Desaminohistidyl-[Aib]HGTFTSDVSKYLEEQAAREFIAWLLKT-NH2 / II: {C18 diacid-γGlu-γGlu}-SGESG; amide I:27-II:C), the EC50 at human GLP-1 receptor stood at 5 pM. The “Chemical stability: Chemical degradation over 14 days at 37° C.” value in series [1] was −0.3%.
